In US7282512B2, “Cycloalkyl ketoamides derivatives useful as cathepsin K inhibitors” (SmithKline Beecham Corporation, priority 2002, dated 2007) one finds Ki data, which are given here for 21 molecules.

The structures appear in SMILES notation.

This assay deals with T1, human cathepsin K (Homo sapiens, UniProt P43235).
T1 construct: The proform of cathepsin K was converted to mature cathepsin K by brief exposure to pH 4; made in house; host or cells: baculovirus; Trichoplusia ni High Five cells (virus raised in Sf-9)
T1 sequence (P43235 115-329): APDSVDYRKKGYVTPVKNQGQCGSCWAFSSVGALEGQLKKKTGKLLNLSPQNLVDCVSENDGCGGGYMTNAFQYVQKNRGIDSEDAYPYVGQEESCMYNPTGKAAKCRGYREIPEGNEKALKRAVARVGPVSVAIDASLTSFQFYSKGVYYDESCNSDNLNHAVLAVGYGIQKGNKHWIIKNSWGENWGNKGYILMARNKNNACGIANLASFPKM
Put plainly: cathepsin K inhibition assay, fluorogenic substrate Cbz-Phe-Arg-AMC, progress curve method. In kind it is biochemical. The conditions noted are these: Table 1; human recombinant enzyme, pH 5.5, 30° C., 10 μM substrate; read-out: hcatK Ki. The method, then: All assays for cathepsin K were carried out with human and rat recombinant enzyme. Assays for cathepsins S & V were also carried out with human recombinant enzyme. Assays for human cathepsins B, H, and L were carried out with enzyme, purchased from Athens Research and Technology, Inc., prepared from human liver tissue. […] A stock substrate solution of Cbz-Phe-Arg-AMC was prepared at a concentration of 50 mM in dimethyl sulfoxide. This substrate was diluted into the assay for a final substrate concentration of 10 μM in the rat cathepsin K, human cathepsin K, and human cathepsin B assays; a final substrate concentration of 5 μM in the human cathepsin L assay; and a final substrate concentration of 2 μM in the human cathepsin V assay.
All assays contained 10% dimethyl sulfoxide. […] All assays were conducted at 30° C. Product fluorescence (excitation at 360 nm; emission at 440 nm, (except cathepsin H which used excitation at 340 nm; emission at 420 nm)) was monitored with a PerSeptive Biosystems Cytofluor II fluorescence plate reader. Product progress curves were generated over 2.3 h monitoring the formation of 7-amino-4-methylcoumarin product (or β-naphthalamide for cathepsin H).
Two liters of Spodoptera frugiperda (Sf-9) cells (ATCC) were grown in Grace's Supplemented medium (Life Technologies) supplemented with 2 g/L glucose, 10% fetal bovine serum (HyClone) and 0.1% pluronic F-68 (Life Technologies). […] The cells continued to grow for 72 h post-infection, before the virus was harvested by centrifugation at 1400×g for 30 min.
One and one-half liters of Trichoplusia ni (T. ni) High Five (™) cells [JRH Biosciences, Woodland, Calif. […] Media were separated from cells at a rate of 1 L/min using the Centritech 100 (™) continuous-flow centrifuge (DuPont) operating at 200×g.
Protein Purification: Media (human and rat) were filtered through a Whatman 3 filter, and then loaded onto a 25 mL Poros HS II (26 mm×47 mm) cation exchange column equilibrated in 25 mM sodium acetate at pH 5.5 (equilibration buffer). The column was washed until the absorbance reached the baseline value, and then the protein was eluted with a linear gradient from 0-2 M sodium chloride in the equilibration buffer. Column fractions were analyzed by SDS-PAGE, N-terminal sequencing, and mass spectrometry. Fractions containing the proform of cathepsin K were pooled and frozen at −80° C. The proform was concentrated in an Amicon Centriprep 10 and fractionated with a Superdex 75 column (26 mm×600 mm, Pharmacia) equilibrated in 400 mM sodium chloride, 25 mM sodium acetate at pH 5.5.
Cathepsin K Activation: The proform of cathepsin K was converted to mature cathepsin K by brief exposure to pH 4 in the presence of 5 mM L-cysteine. Typically, 5 mM L-cysteine was added to 10 mL of approximately 1 mg/mL procathepsin K. One mL of this solution was diluted ten-fold into 450 mM sodium acetate at pH 4.0 containing 5 mM L-cysteine. This solution was reacted at 23° C. for 2 min before neutralization with 2 mL 1.8 M sodium acetate at pH 6.0. The neutralized sample was added to the remaining 9 mL of procathepsin K. The mixture was incubated at 4° C. for 2-3 days. The activated cathepsin K was chromatographed on a Poros HS II column as described above.
Potential inhibitors were evaluated using the progress curve method. Assays were carried out in the presence of variable concentrations of test compound. Reactions were initiated by addition of buffered solutions of inhibitor and substrate to enzyme. Data analysis was conducted according to one of two procedures depending on the appearance of the progress curves in the presence of inhibitors. […] Ki values were calculated from IC50 values using equation 2 assuming a competitive model.
Regarding `CCCCC(NC(=O)OCC1(COc2nnc(C)cc2-c2ccccc2)CCC1)C(=O)C(=O)N[C@H](C)c1ccccc1` (stereo in doubt) [Example 32, (1-{[(6-methyl-4-phenylpyridazin-3-yl)oxy]methyl}cyclobutyl)methyl (1R)-1-(oxo{[(1R)-1-phenylethyl]amino}acetyl)pentylcarbamate], the Ki is 10 to 100 nM.

Turning to `CCCC[C@H](NC(=O)OC1(Cc2ccccc2)CCC1)C(=O)C(=O)N[C@H](C)c1ccccc1` [Example 1, 1-Benzylcyclobutyl (1S)-1-(oxo{[(1R)-1-phenylethyl]amino}acetyl)pentylcarbamate], the Ki is 100 to 1000 nM.

As for `CCCC[C@H](NC(=O)OC1(Cc2ccccc2)CCCC1)C(=O)C(=O)N[C@H](C)c1ccccc1` [Example 2], the Ki fell in the range of 10 to 100 nM.

In the case of `CCCC[C@H](NC(=O)OC1(Cc2ccccc2)CCCCC1)C(=O)C(=O)N[C@H](C)c1ccccc1` [Example 4, 1-Benzylcyclohexyl(1S)-1-(oxo{[(1R)-1-phenylethyl]amino}acetyl)pentylcarbamate], the Ki was 100 to 1000 nM.

Consider `C[C@@H](NC(=O)C(=O)[C@H](CCCCNC(=O)N1CCOCC1)NC(=O)OCC1(Cc2ccccc2)CCCCC1)c1ccccc1` [Example 9, (1-Benzylcyclohexyl)methyl(1S)-5-[(4-morpholinylcarbonyl)amino]-1-(oxo{[(1R)-1-phenylethy]amino}acetyl)pentylcarbamate], for which the Ki is 10 to 100 nM.

With `C[C@@H](NC(=O)C(=O)[C@H](CCCCNC(=O)N1CCOCC1)NC(=O)OCC1(Cc2ccc(F)cc2)CCC1)c1ccccc1` [Example 10, [1-(4-Fluorobenzyl)cyclobutyl]methyl(1S)-5-[(4-morpholinylcarbonyl)amino]-1-(oxo{[(1R)-1-phenylethyl]amino}acetyl)pentylcarbamate], the Ki was 10 to 100 nM.

In the case of `C[C@@H](NC(=O)C(=O)[C@H](CCCCNC(=O)N1CCOCC1)NC(=O)OCC1(Cc2ccncc2)CCC1)c1ccccc1` [Example 11, [1-(4-Pyridinylmethyl)cyclobutyl]methyl(1S)-5-[(4-morpholinylcarbonyl)amino]-1-(oxo{[(1R)-1-phenylethyl]amino}acetyl)pentylcarbamate], the Ki fell in the range of 1 to 10 nM.

For `C[C@@H](NC(=O)C(=O)[C@H](CCCCNC(=O)N1CCOCC1)NC(=O)OCC1(Cc2cccnc2)CCC1)c1ccccc1` [Example 12, [1-(3-Pyridinylmethyl)cyclobutyl]methyl(1S)-5-[(4-morpholinylcarbonyl)amino]-1-(oxo{[(1R)-1-phenylethyl]amino}acetyl)pentylcarbamate], the Ki lay within 100 to 1000 nM.

With `CNC(=O)NCCCC[C@H](NC(=O)OCC1(Cc2c(F)cccc2F)CCC1)C(=O)C(=O)N[C@H](C)c1ccccc1` [Example 13, [1-(2,6-Difluorobenzyl)cyclobutyl]methyl(1S)-5-{[(methylamino)carbonyl]amino}-1-(oxo{[(1R)-1-phenylethyl]amino}acetyl)pentylcarbamate], the Ki is 10 to 100 nM.

As for `CCCC[C@H](NC(=O)OCC1(Cc2ccc(F)cc2)CCC1)C(=O)C(=O)Nc1ccn[nH]1` [Example 14, [1-(4-Fluorobenzyl)cyclobutyl]methyl(1S)-1-[oxo(1H-pyrazol-5-ylamino)acetyl]pentylcarbamate], the Ki is below 1 nM.

For the molecule `CN(C)S(=O)(=O)NCCCC[C@H](NC(=O)OCC1(Cc2ccc(F)cc2)CCC1)C(=O)C(=O)NCc1cccnc1` [Example 16, [1-(4-Fluorobenzyl)cyclobutyl]methyl(1S)-5-{[(dimethylamino)sulfonyl]amino}-1-{oxo[(3-pyridinylmethyl)amino]acetyl}pentylcarbamate], the inhibition constant (Ki) lay within 10 to 100 nM.

As to `CCCC[C@H](NC(=O)OCC1(Cc2nc(-c3ccccc3)cs2)CCC1)C(=O)C(=O)N[C@H](C)c1ccccc1` [Example 18, {1-[(4-phenyl-1,3-thiazol-2-yl)methyl]cyclobutyl}methyl(1S)-1-(oxo{[(1R)-1-phenylethyl]amino}acetyl)pentylcarbamate], the Ki was in the range of 1 to 10 nM.

For the molecule `CCCC[C@H](NC(=O)OCC1(CSc2nccn2C)CCC1)C(=O)C(=O)N[C@H](C)c1ccccc1` [Example 19, (1-{[(1-methyl-1H-imidazol-2-yl)sulfanyl]methyl}cyclobutyl)methyl (1S)-1-(oxo{[(1R)-1-phenylethyl]amino}acetyl)pentylcarbamate], the inhibition constant Ki lay within 10 to 100 nM.

`CCCC[C@H](NC(=O)OCC1(COc2ccnc(Cl)n2)CCC1)C(=O)C(=O)N[C@H](C)c1ccccc1` [Example 20, (1-{[(2-chloro-4-pyrimidinyl)oxy]methyl}cyclobutyl)methyl(1S)-1-(oxo{[(1R)-1-phenylethyl]amino}acetyl)pentylcarbamate]: the Ki lay in the range of 100 to 1000 nM.

Turning to `CCCC[C@H](NC(=O)OCC1(COc2ccnc(N3CCN(C)CC3)n2)CCC1)C(=O)C(=O)N[C@H](C)c1ccccc1` [Example 21, [1-({[2-(4-methyl-1-piperazinyl)-4-pyrimidinyl]oxy}methyl)cyclobutyl]methyl (1S)-1-(oxo{[(1R)-1-phenylethyl]amino}acetyl)pentylcarbamate], the Ki lay in the range of 10 to 100 nM.

For `CCCC[C@H](NC(=O)OCC1(COc2ccnc(N3CCOCC3)n2)CCC1)C(=O)C(=O)N[C@H](C)c1ccccc1` [Example 22, [1-({[2-(4-morpholinyl)-4-pyrimidinyl]oxy}methyl)cyclobutyl]methyl (1S)-1-(oxo{[(1R)-1-phenylethyl]amino}acetyl)pentylcarbamate], the inhibition constant Ki is 10 to 100 nM.

Consider `CCCC[C@H](NC(=O)OCC1(CSc2ncccn2)CCC1)C(=O)C(=O)N[C@H](C)c1ccccc1` [Example 23, {1-[(2-pyrimidinylsulfanyl)methyl]cyclobutyl}methyl (1S)-1-(oxo{[(1R)-1-phenylethyl]amino}acetyl)pentylcarbamate], for which the Ki fell in the range of 10 to 100 nM.

Take `CCCC[C@H](NC(=O)OCC1(CSc2nc3ccccc3o2)CCC1)C(=O)C(=O)N[C@H](C)c1ccccc1` [Example 24, {1-[(1,3-benzoxazol-2-ylsulfanyl)methyl]cyclobutyl}methyl (1S)-1-(oxo{[(1R)-1-phenylethyl]amino}acetyl)pentylcarbamate]: the Ki was 10 to 100 nM.

On to `CCCC[C@H](NC(=O)OCC1(COc2nccs2)CCC1)C(=O)C(=O)N[C@H](C)c1ccccc1` [Example 25, {1-[(1,3-thiazol-2-yloxy)methyl]cyclobutyl}methyl (1S)-1-(oxo{[(1R)-1-phenylethyl]amino}acetyl)pentylcarbamate], for which the Ki lay within 10 to 100 nM.

For `CCCC[C@H](NC(=O)OCC1(COc2nc(-c3ccccc3)ns2)CCC1)C(=O)C(=O)N[C@H](C)c1ccccc1` [Example 26, (1-{[(3-phenyl-1,2,4-thiadiazol-5-yl)oxy]methyl}cyclobutyl)methyl (1S)-1-(oxo{[(1R)-1-phenylethyl]amino}acetyl)pentylcarbamate], the Ki was in the range of 10 to 100 nM.

For `CCCC[C@H](NC(=O)OCC1(COc2ccnc(N3CCN(c4ccccc4)CC3)n2)CCC1)C(=O)C(=O)N[C@H](C)c1ccccc1` [Example 27, [1-({[2-(4-phenyl-1-piperazinyl)-4-pyrimidinyl]oxy}methyl)cyclobutyl]methyl (1S)-1-(oxo{[(1R)-1-phenylethyl]amino}acetyl)pentylcarbamate], the inhibition constant Ki is 10 to 100 nM.

In general, Ki refers to a measure of affinity in units of concentration, obtained from inhibition or displacement.
